Data published in ChEMBL document CHEMBL1201862, “PubChem BioAssay data set” (2004).
Calls of active or inactive are those of the source.

How the values were obtained:
[1] = molecular target: T1, Short transient receptor potential channel 4 (Mus musculus, UniProt Q9QUQ5); test: mouse TRPC4 channel inhibitors, dose response, cell-based, HEK293 TRPC4/mu-opioid, Fluo-4 calcium (AID 434942); assay type: functional;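 also: potency of inhibitors blocking the TRPC4 calcium response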
T1 sequence (Q9QUQ5 whole entry): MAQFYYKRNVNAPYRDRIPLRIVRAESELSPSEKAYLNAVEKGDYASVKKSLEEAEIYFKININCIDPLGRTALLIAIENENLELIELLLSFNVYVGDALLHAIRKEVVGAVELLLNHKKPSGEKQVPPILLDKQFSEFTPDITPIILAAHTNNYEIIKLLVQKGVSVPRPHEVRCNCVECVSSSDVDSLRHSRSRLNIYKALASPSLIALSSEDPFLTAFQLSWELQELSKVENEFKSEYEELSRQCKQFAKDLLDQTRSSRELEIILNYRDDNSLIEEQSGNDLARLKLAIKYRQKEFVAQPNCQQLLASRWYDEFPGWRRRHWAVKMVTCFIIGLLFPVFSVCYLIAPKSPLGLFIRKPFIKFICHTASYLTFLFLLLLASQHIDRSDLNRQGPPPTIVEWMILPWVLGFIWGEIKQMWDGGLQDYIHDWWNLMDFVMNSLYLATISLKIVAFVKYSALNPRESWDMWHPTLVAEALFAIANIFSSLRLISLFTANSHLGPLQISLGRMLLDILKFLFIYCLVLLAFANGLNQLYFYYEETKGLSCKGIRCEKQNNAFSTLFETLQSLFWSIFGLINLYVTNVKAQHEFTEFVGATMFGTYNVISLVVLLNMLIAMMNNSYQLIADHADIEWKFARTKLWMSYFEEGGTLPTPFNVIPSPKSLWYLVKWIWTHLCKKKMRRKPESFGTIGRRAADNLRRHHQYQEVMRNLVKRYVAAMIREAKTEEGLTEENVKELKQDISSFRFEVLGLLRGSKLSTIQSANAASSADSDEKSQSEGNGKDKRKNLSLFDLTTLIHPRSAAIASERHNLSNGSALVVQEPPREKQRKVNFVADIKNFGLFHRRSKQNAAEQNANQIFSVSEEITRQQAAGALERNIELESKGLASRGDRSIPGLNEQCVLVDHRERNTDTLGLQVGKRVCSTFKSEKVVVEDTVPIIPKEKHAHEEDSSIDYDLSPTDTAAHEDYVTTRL

cells [2] = assay type: functional
[3] = THP-1 cell cytotoxicity, dose response, cytotoxicity control for non-replicating M. tuberculosis project (AID 489025); assay type: functional
Streptococcus = test: Group A Streptococcus viability loss, dose response, counter-screen for streptokinase expression inhibitor project, luminescence, BacTiterGlo (AID 1915); assay type: functional, organism-based;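 also: potency for reduction of bacterial viability or growth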
[4] = microbe, parasite or virus in culture; assay type: functional; details: Mycobacterium tuberculosis
[5] = test system: Streptococcus sp. 'group A'; test: growth inhibition of control SK(-) GAS strain, dose response, counter-screen for streptokinase expression inhibitor project, luminescence, kanamycin, BacTiterGlo, confirmation (AID 1900); assay type: functional, organism-based
[6] = molecular target: T2, Ubiquitin-conjugating enzyme E2 N (Homo sapiens, UniProt P61088); assay type: functional;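 also: Dose-response confirmation in a TR-FRET assay detecting UBC13-driven polyubiquitin chain formation, inhibition measured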
T2 sequence (P61088 whole entry): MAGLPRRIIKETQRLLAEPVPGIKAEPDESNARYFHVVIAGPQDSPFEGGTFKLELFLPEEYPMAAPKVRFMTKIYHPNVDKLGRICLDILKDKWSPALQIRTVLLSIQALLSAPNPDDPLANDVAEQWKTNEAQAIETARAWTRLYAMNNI

Vero [7] = test: cells; assay type: functional, cell-based, Chlorocebus sabaeus
[8] = Luminescence Cell-Based Dose Confirmation HTS to Identify Inhibitors of Platelet Dense Granule Release. [Related pubchem assays: 1663 (Primary HTS), 1678 (Summary of Project)]; assay type: functional
[9] = inhibitors of intracellular T. cruzi replication, confirmation, NIH3T3 host cells, beta-gal luminescence (AID 2044); assay type: functional, cell-based;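 also: intracellular parasites grown in NIH/3T3 mouse fibroblasts as host cells; luminescent beta-galactosidase reporter signal from transgenic T. cruzi replicating inside host cells; inhibitors lower the luminescence signal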
[10] = cytotoxicity toward NIH3T3 fibroblasts, dose response, counter-screen, cell-based, ATP luminescence, mouse fibroblasts (AID 2010); assay type: functional;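 also: cells exposed to compound for about 90 hours before reading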
cells [11] = test: cells
Vero [12] = test: cells; assay type: functional, Chlorocebus sabaeus
Large T antigen = Large T antigen (Simian virus 40, UniProt P03070); assay type: functional, Betapolyomavirus macacae;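 also: Confirmatory-stage PubChem screen for compounds that inhibit SV40 T antigen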
Sequence of Large T antigen (P03070 whole entry): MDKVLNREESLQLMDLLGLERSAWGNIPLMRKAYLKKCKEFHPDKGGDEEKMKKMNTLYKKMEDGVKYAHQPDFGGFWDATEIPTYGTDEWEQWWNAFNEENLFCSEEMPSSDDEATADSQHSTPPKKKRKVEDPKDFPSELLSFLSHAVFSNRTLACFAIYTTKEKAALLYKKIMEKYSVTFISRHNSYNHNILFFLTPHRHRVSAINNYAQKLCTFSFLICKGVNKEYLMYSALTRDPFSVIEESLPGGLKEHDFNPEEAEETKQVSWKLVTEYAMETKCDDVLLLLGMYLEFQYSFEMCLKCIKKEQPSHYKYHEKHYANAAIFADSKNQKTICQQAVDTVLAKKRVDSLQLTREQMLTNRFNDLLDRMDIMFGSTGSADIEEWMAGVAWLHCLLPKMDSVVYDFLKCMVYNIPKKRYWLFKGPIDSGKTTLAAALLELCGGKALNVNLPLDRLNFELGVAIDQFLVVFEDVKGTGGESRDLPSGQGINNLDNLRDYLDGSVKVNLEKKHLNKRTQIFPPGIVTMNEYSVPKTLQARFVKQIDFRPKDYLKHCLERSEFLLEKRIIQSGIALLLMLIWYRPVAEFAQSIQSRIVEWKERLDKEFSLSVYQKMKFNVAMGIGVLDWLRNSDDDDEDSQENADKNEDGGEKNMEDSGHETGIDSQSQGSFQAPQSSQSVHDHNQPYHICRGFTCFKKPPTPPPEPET

SMILES: N=c1c2c(n(Cc3ccccc3)c3c1CCC3)CCC2
- EC50 [1]: 3.35 µM (active)

SMILES: COc1ccc(Br)cc1CN1CCN(C(=O)Cc2ccccc2)CC1
- EC50 [1]: 6.68 µM (active)

SMILES: CCOC(=O)C1(CCOc2ccccc2)CCN(Cc2cccs2)CC1
- EC50 [1]: 4.22 µM (active)

SMILES: Cc1cc2nc(N/C(N)=N/C(=O)C(C)C)nc(C)c2cc1C
- IC50 (cells [2]): 20.3 µM (active)
- CC50 [3]: 17 µM (active)
- EC50 (Streptococcus): > 150 µM (not active)
- CC50 [4]: > 40 µM (active)
- EC50 [5]: > 150 µM (not active)

SMILES: N#Cc1ccsc1NC(=O)C1CCN(C(=O)c2ccc(Cl)cc2)CC1
- IC50 [6]: > 20 µM (inactive)

SMILES: CNCCNC[C@H](Cc1cccc2ccccc12)NCCc1ccccc1
- IC50 (Vero [7]; Chlorocebus sabaeus, Vero): 20.4 µM (active)

SMILES: CCOC(=O)c1nc(O)c2c3c(sc2n1)CCCC3
- EC50 [8]: > 112 µM (not active)

SMILES: COc1cccc(NC(=O)CSc2nc3ccccc3c(=O)n2CCCC(=O)NCCCN2CCOCC2)c1
- IC50 [6]: > 20 µM (inactive)

SMILES: COc1ccc(Cn2nnnc2C(c2cc3cc(C)ccc3nc2O)N2CCN(C)CC2)cc1 (configuration not stated)
- EC50 [1]: 1.88 µM (active)

SMILES: CCc1ccc2oc(=O)cc(CN3CCN(Cc4ccccc4)CC3)c2c1
- EC50 [9]: < 0.1 µM (active)
- EC50 [10]: > 60 µM (not active)
- EC50 (cells [11]): 0.127 µM (active)

SMILES: C[C@]12CCCC[C@@H]1CC[C@@H]1[C@@H]2CC[C@@]2(C)[C@H]1CC[C@@]2(O)CNCCO
- IC50 (Vero [7]; Chlorocebus sabaeus, Vero): > 12.5 µM (active)
- IC50 (Vero [7]; vero): 9.19 µM (active)
- IC50 [6]: > 20 µM (inactive)
- CC50 (Vero [12]): 19.4 µM (active)
- CC50 (Vero [12]; Chlorocebus sabaeus, Vero): 18.4 µM (active)

SMILES: COc1cc(/C=N/N(C)C)cc(Br)c1O
- IC50 (Large T antigen): 5.17 µM (active)
